Experiments:
[1] = system: Bacteroides spp. spontaneous mutants; settings: B. fragilis ATCC 25285; CLSI QC range shown in parentheses; cited from earlier work
[2] = system: Bacteroides spp. (B. fragilis ATCC 25285, B. vulgatus, B. ovatus MMX 3503); settings: cited from earlier work
[3] = system: Clostridium spp. clinical isolates; assay: MIC distribution against clinical isolates; format: cell-based; settings: MIC 4 μg/mL; 10 Clostridium spp. isolates
Source text: (n=4 C. sporogenes, n=2 C. ramosum and n=4 C. innocuum) clinical isolates (μg/mL).
As used herein, “minimum inhibitory concentration” or “MIC” refers to the lowest concentration of an antimicrobial agent, for example, an antimicrobial agent as described herein, required to inhibit the growth of an organism. […] “MIC90” represents the MIC value at which ≥90% of the strains within a test population are inhibited; the 90th percentile.
Many susceptibility testing methods are known in the art and can be used as described herein (see, e.g., Jorgensen and Ferraro (2009) Clinical Infectious Diseases 49:1749-1755; and Maurer et al. (2017) Infectious Disease Reports 9:6839; the entire contents of each of the foregoing are incorporated herein by reference). For example, antimicrobial susceptibility can be determined using conventional culture based methods such as the broth or agar dilution test. In these dilution tests, the bacterial isolate of interest is inoculated onto different media that include serial dilutions of an antimicrobial agent, and incubated under appropriate conditions (e.g., overnight at 37° C.) to allow for growth to occur. Following the incubation period, the media is examined to determine bacterial growth. The lowest concentration of antibiotic that prevents growth represents the minimal inhibitory concentration (MIC). Broth dilution tests can be miniaturized and mechanized allowing for reproducibility and high throughput.

[4] = system: E. coli (ATCC 25922, ATCC 35218, MMX 1312); settings: cited from earlier work

SMILES | MIC, CLSI QC range [1] | CLSI QC range (agar MIC) [2] [µg/mL] | Cumulative percentage of isolates inhibited at MIC [3] [%] | CLSI QC range (agar MIC) [4] [µg/mL]
Cc1ncc([N+](=O)[O-])n1CCO [MTZ] | (0.25-2) μg/mL |  |  | 
CO/N=C(\C(=O)N[C@@H]1C(=O)N2C(C(=O)O)=C(CSc3nc(=O)c(=O)[nH]n3C)CS[C@H]12)c1csc(N)n1 [ceftriaxone] |  | 32 to 128 | 40.0 | 0.03 to 0.12
